Assay: method code SF, from PMID: 17665861
Conditions: pH 7.4

SMILES	logD
O=C1Nc2ccccc2C12SC1C(=NNC1c1ccccc1Cl)N2c1ccccc1 (stereo not drawn)	1.22
COc1ccc(C2NN=C3C2SC2(C(=O)Nc4ccccc42)N3c2ccc(Br)cc2)cc1 (stereo not drawn)	1.4
O=C1Nc2ccccc2C12SC1C(=NNC1c1ccc([N+](=O)[O-])cc1)N2c1ccc(Cl)cc1 (stereo not drawn)	1.31
O=C1Nc2ccccc2C12SC1C(=NNC1c1ccccc1Cl)N2c1cccc2ccccc12 (stereo not drawn)	1.21
O=C1Nc2ccccc2C12SC1C(=NNC1c1ccc([N+](=O)[O-])cc1)N2c1ccc(Br)cc1 (stereo not drawn)	1.35
O=C1Nc2ccccc2C12SC1C(=NNC1c1ccccc1O)N2c1ccccc1 (stereo not drawn)	1.25
COc1ccccc1N1C2=NNC(c3ccccc3O)C2SC12C(=O)Nc1ccccc12 (stereo not drawn)	1.14
O=C1Nc2ccccc2C12SC1C(=NNC1c1ccccc1)N2c1ccc(Br)cc1 (stereo not drawn)	1.24
O=C1Nc2ccccc2C12SC1C(=NNC1c1ccccc1O)N2c1ccc(Br)cc1 (stereo not drawn)	1.38
COc1ccc(C2NN=C3C2SC2(C(=O)Nc4ccccc42)N3c2ccccc2OC)cc1 (stereo not drawn)	1.23
COc1ccc(C2NN=C3C2SC2(C(=O)Nc4ccccc42)N3c2ccc(Cl)cc2)cc1 (stereo not drawn)	1.41
COc1ccccc1N1C2=NNC(c3ccc(Cl)cc3)C2SC12C(=O)Nc1ccccc12 (stereo not drawn)	1.26
O=C1Nc2ccccc2C12SC1C(=NNC1c1ccccc1Cl)N2c1ccc(Br)cc1 (stereo not drawn)	1.45
O=C1Nc2ccccc2C12SC1C(=NNC1c1ccccc1Cl)N2c1ccc(Cl)cc1 (stereo not drawn)	1.31
COc1ccc(C2NN=C3C2SC2(C(=O)Nc4ccccc42)N3c2cccc3ccccc23)cc1 (stereo not drawn)	1.2

The next lines start with the values.

logD	SMILES
1.17	O=C1Nc2ccccc2C12SC1C(=NNC1c1ccccc1[N+](=O)[O-])N2c1cccc2ccccc12 (stereo not drawn)
1.17	O=C1Nc2ccccc2C12SC1C(=NNC1c1ccccc1Cl)N2c1ccccc1[N+](=O)[O-] (stereo not drawn)
1.35	COc1ccc(C2NN=C3C2SC2(C(=O)Nc4ccccc42)N3c2ccccc2[N+](=O)[O-])cc1 (stereo not drawn)
1.19	COc1ccccc1N1C2=NNC(c3ccccc3)C2SC12C(=O)Nc1ccccc12 (stereo not drawn)
1.14	O=C1Nc2ccccc2C12SC1C(=NNC1c1ccccc1)N2c1ccccc1[N+](=O)[O-] (stereo not drawn)
1.45	O=C1Nc2ccccc2C12SC1C(=NNC1c1ccc([N+](=O)[O-])cc1)N2c1ccccc1[N+](=O)[O-] (stereo not drawn)
1.11	COc1ccccc1N1C2=NNC(c3ccccc3[N+](=O)[O-])C2SC12C(=O)Nc1ccccc12 (stereo not drawn)
1.1	O=C1Nc2ccccc2C12SC1C(=NNC1c1ccccc1)N2c1ccc(Cl)cc1 (stereo not drawn)

— the SangsterLogP compilation
